# Measurements as given in patent US20260000698A1 (priority 2022, published 2026).
# pEC50, pIC50: −log10 of the molar value. Where two headings read alike, the source gives them in different places. Marks after values point to notes of the source that are not given here.
# Legend:
# A549/ACE2/TMPRSS2 cells = test: in vitro; settings: for CC50: A549/ACE2/TMPRSS2 cells
# Description: (§1) Percentage of infected cells was determined by dividing the number of infected cells by the total number of cells per well. The percentage of infected cells and total number of cells for each treatment was plotted into GraphPad prism (GraphPad Software; San Diego, CA, USA) to perform a non-linear regression analysis, generate infectious dose-response curves and to calculate EC50 and CC50 values.
# (§2) Viability assays for the non-infected A549/ACE2/TMPRSS2 cells were performed using the 3-(4,5-dimethylthiazol-2-yl)-5-(3-carboxymethoxyphenyl)-2-(4-sulfophenyl)-2H-tetrazolium (MTS)-based tetrazolium reduction CellTiter 96 Aqueous Non-Radioactive cell proliferation assay (Promega G5430; Madison, WI) as described. Assays were conducted using parallel plates to those used in the immunofluorescence assay. Experimental details (cell line, number of cells seeded and incubation time) corresponded to those used in the immunofluorescence assay above. The data obtained were used to calculate the CC50 value using GraphPad Prism software.
# [1] = system: SARS-CoV-2 isolate USA-WA1/2020; settings: for antiviral activity: A549 AT cells
# [2] = system: SARS-CoV-2 isolate USA-WA1/2020; test: microbe, parasite or virus in culture; settings: for pEC50: Severe acute respiratory syndrome coronavirus 2, A549-ACE2, 48 h; for inhibition at 10 µM: Severe acute respiratory syndrome coronavirus 2, A549-ACE2, read-out: % inhibition at 10 μM (EC50)
# in vitro = settings: human
# Description: as §1, §2
# SARS-CoV-2 Nsp14 MTase = SARS-CoV-2 Nsp14 MTase (Severe acute respiratory syndrome coronavirus 2, UniProt P0DTD1); test: biochemical; format: biochemical
# [3] = Plasma stability assay, mouse plasma; format: in vitro ADME, mouse (CD-1)
# Description: (§3) Plasma stability assay. The plasma stability assay was performed in triplicate by incubating each selected compound (1 μmol/L final concentration) in normal mouse (CD-1) or human plasma (Innovative Research; Novi, MI, USA) diluted to 80% with 0.1 mol/L potassium phosphate buffer (pH 7.4) at 37° C. At 0, 1, 3, 6, and 24 h, a 50 μL aliquot of the plasma mixture was taken and quenched with 150 μL of acetonitrile containing 0.1% formic acid. The samples were then vortexed and centrifuged at 15,000 rpm (Eppendorf centrifuge 5424R; Enfield, CT, USA) for 5 min. The supernatants were collected and analyzed by LC-MS/MS to determine the in vitro plasma half-life (t1/2).
# [4] = Parallel artificial membrane permeability assay (PAMPA); format: in vitro ADME
# Description: Parallel artificial membrane permeability assay (PAMPA).^5 The membrane permeability of selected compounds was evaluated using the Corning® BioCoat™ Pre-coated PAMPA Plate System (Corning 353015; Glendale, AZ, USA). The pre-coated plate assembly, which was stored at −20° C., was taken to thaw for 30 min at room temperature. The permeability assay was carried out in accordance with the manufacturer's protocol. Briefly, the 96-well filter plate, pre-coated with lipids, was used as the permeation acceptor and a matching 96 well receiver plate was used as the permeation donor. Compound solutions were prepared by diluting the 10 mmol/L DMSO stock solutions with 10% methanol in DPBS to a final concentration of […]. The compound solutions were added to the wells (300 μL/well) of the receiver plate and DPBS with 10% methanol was added to the wells (200 μL/well) of the pre-coated filter plate. The filter plate was then coupled with the receiver plate and the plate assembly was incubated at 25° C. without agitation for 5 h. At the end of the incubation, the plate was separated and the final concentrations of compounds in both donor wells and acceptor wells were analyzed using LC-MS/MS. Permeability of a compound was calculated using the Eq. (1):
# where A=filter area (0.3 cm^2), VD=donor well volume (0.3 mL), VA=acceptor well volume (0.2 mL), t=incubation time (seconds), CA(t)=compound concentration in acceptor well at time t, CD(t)=compound concentration in donor well at time t, and Ceq was calculated using the Eq. (2): […]
# A cutoff criterion of Pe value at […] was used to classify the compounds into high and low permeability according to the literature report of this PAMPA plate system^1.
# [5] = Liver S9 stability assay, mouse liver S9; settings: n = 2, mean±SD; for Mouse Liver S9 Stability t1/2, Phase II: cofactor UDPGA
# [6] = Liver S9 stability assay, human liver S9; settings: n = 2, mean±SD
# [7] = not given; remark: listed apart in the source
# [8] = Plasma stability assay, human plasma; format: in vitro ADME
# Description: as §3
# [9] = Solubility as observed in antiviral testing
# [10] = LC-MS/MS detection of SAH, read-out: MTase IC50
smiles,measurement,setting,value
"CC(=O)O[C@@H]1[C@H](OC(C)=O)[C@@H](CNS(=O)(=O)c2ccc3ccccc3c2)O[C@H]1c1ccc2c(N)ncnn12 [Compound 11, (2S,3S,4R,5R)-2-(4-Aminopyrrolo[2,1-f][1,2,4]triazin-7-yl)-5-((naphthalene-2-sulfonamido)methyl)tetrahydrofuran-3,4-diyl diacetate]",CC50,A549/ACE2/TMPRSS2 cells,63 µM
same,cytotoxicity,"A549/ACE2/TMPRSS2 cells; human, 100 μM",more toxic than 10
same,antiviral activity,[1],less active
same,pEC50,[2],5.37
"Nc1ncnn2c([C@@H]3O[C@H](CNS(=O)(=O)c4csc5ccccc45)[C@@H](O)[C@H]3O)ccc12 [Compound 14, N-(((2R,3S,4R,5S)-5-(4-Aminopyrrolo[2,1-f][1,2,4]triazin-7-yl)-3,4-dihydroxytetrahydrofuran-2-yl)methyl)benzo[b]thiophene-3-sulfonamide]",CC50,in vitro,> 100 µM
same,pEC50,[2],4.89
same,pIC50,SARS-CoV-2 Nsp14 MTase; [10],5.70
"Nc1ncnn2c([C@@H]3O[C@H](CNS(=O)(=O)c4ccc5ccccc5c4)[C@@H](O)[C@H]3O)ccc12 [Compound 10, N-(((2R,3S,4R,5S)-5-(4-Aminopyrrolo[2,1-f][1,2,4]triazin-7-yl)-3,4-dihydroxytetrahydrofuran-2-yl)methyl)naphthalene-2-sulfonamide]","Plasma Stability t1/2, Mouse","[3]; mouse plasma, 37° C., n = 3",>24^d h
same,stability in mouse plasma,"[3]; mouse, plasma",similarly stable
same,CC50,A549/ACE2/TMPRSS2 cells,> 100 µM
same,passive diffusion rate in PAMPA,[4]; PAMPA,equally low
same,PAMPA Permeability Pe,"[4]; n = 6, mean±SD, 25° C., 5 h",0.2 ± 0.1 10^−6 cm/s
same,"Mouse Liver S9 Stability t1/2, Phase I",[5]; cofactor NADPH,28.9 ± 0.3 min
same,"Mouse Liver S9 Stability t1/2, Phase II",[5],>45^e min
same,"Human Liver S9 Stability t1/2, Phase I",[6]; cofactor NADPH,842 ± 210 min
same,"Human Liver S9 Stability t1/2, Phase II",[6]; cofactor UDPGA,>45^e min
same,stability in human liver S9 fractions,,similarly stable
same,therapeutic index (TI=CC50/EC50),[1]; CC50/EC50,greater than 139
same,pEC50,[2],6.14
same,stability in mouse S9 phase I reactions,[7],surprisingly labile
same,"Plasma Stability t1/2, Human","[8]; human plasma, 37° C., n = 3",>24^d h
same,stability in human plasma,"[8]; human, plasma",similarly stable
same,MTase inhibitory activity,SARS-CoV-2 Nsp14 MTase,comparable to that of 3
same,pIC50,SARS-CoV-2 Nsp14 MTase; [10],7.03
"CC(C)C(=O)O[C@@H]1[C@H](OC(=O)C(C)C)[C@@H](CNS(=O)(=O)c2ccc3ccccc3c2)O[C@H]1n1cnc2c(N)ncnc21 [Compound 7, (2R,3R,4R,5R)-2-(6-Amino-9H-purin-9-yl)-5-((naphthalene-2-sulfonamido)methyl)tetrahydrofuran-3,4-diyl bis(2-methylpropanoate)]",CC50,A549/ACE2/TMPRSS2 cells,> 100 µM
same,antiviral activity,[1],showed antiviral activity
same,pEC50,[2],~4.01
same,solubility,[9],low solubility
"O=c1ccc2ccc(O)cc2o1 [Umbelliferone, reference compound]","Mouse Liver S9 Stability t1/2, Phase II",[5],0.8 ± 0.005 min
"Nc1ncnn2c([C@@H]3O[C@H](CNS(=O)(=O)c4cc5ccccc5s4)[C@@H](O)[C@H]3O)ccc12 [Compound 13, N-(((2R,3S,4R,5S)-5-(4-aminopyrrolo[2,1-f][1,2,4]triazin-7-yl)-3,4-dihydroxytetrahydrofuran-2-yl)methyl)benzo[b]thiophene-2-sulfonamide]",CC50,in vitro,> 100 µM
same,pEC50,[2],5.80
same,pIC50,SARS-CoV-2 Nsp14 MTase,7.38
"CCN(C[C@H]1C[C@@H](n2cnc3c(N)ncnc32)[C@H](O)[C@@H]1O)S(=O)(=O)c1ccc2ccccc2c1 [Compound A2, N-(((1R,2R,3S,4R)-4-(6-Amino-9H-purin-9-yl)-2,3-dihydroxycyclopentyl)methyl)-N-ethylnaphthalene-2-sulfonamide]",CC50,in vitro,> 100 µM
same,inhibition at 10 µM,[2],29%
same,pIC50,SARS-CoV-2 Nsp14 MTase; [10],6.59
"Nc1ncnc2c1ncn2[C@@H]1C[C@H](CNS(=O)(=O)c2ccc3ccccc3c2)[C@H](O)[C@@H]1O [Compound A3, N-(((1R,2S,3R,4R)-4-(6-Amino-9H-purin-9-yl)-2,3-dihydroxycyclopentyl)methyl)naphthalene-2-sulfonamide]",CC50,in vitro,> 100 µM
same,inhibition at 10 µM,[2],41%
same,pIC50,SARS-CoV-2 Nsp14 MTase,3.99
"Nc1ncnn2c([C@@H]3O[C@H](CNS(=O)(=O)c4ccc5ccccc5c4)[C@@H](O)[C@H]3O)cc(I)c12 [Compound 49, N-(((2R,3S,4R,5S)-5-(4-Amino-5-iodopyrrolo[2,1-f][1,2,4]triazin-7-yl)-3,4-dihydroxytetrahydrofuran-2-yl)methyl)naphthalene-2-sulfonamide]",CC50,in vitro,28 µM
same,pEC50,[2],4.96
same,pIC50,SARS-CoV-2 Nsp14 MTase; [10],7.34
"Nc1ncnn2c([C@@H]3O[C@H](CNS(=O)(=O)c4cccc5ccccc45)[C@@H](O)[C@H]3O)ccc12 [Compound 12, N-(((2R,3S,4R,5S)-5-(4-Aminopyrrolo[2,1-f][1,2,4]triazin-7-yl)-3,4-dihydroxytetrahydrofuran-2-yl)methyl)naphthalene-1-sulfonamide]",CC50,in vitro,> 100 µM
same,pEC50,[2],5.52
same,pIC50,SARS-CoV-2 Nsp14 MTase; [10],5.14
"Nc1ncnc2c1ncn2[C@@H]1C[C@H](CNS(=O)(=O)c2ccc3ccccc3c2)[C@@H](O)[C@H]1O [Compound A1, N-(((1R,2R,3S,4R)-4-(6-Amino-9H-purin-9-yl)-2,3-dihydroxycyclopentyl)methyl)naphthalene-2-sulfonamide]",CC50,in vitro,> 100 µM
same,inhibition at 10 µM,[2],33%
same,pIC50,SARS-CoV-2 Nsp14 MTase,6.11
"CCN(C[C@H]1C[C@@H](n2cnc3c(N)ncnc32)[C@@H](O)[C@H]1O)S(=O)(=O)c1ccc2ccccc2c1 [Compound A4, N-(((1R,2S,3R,4R)-4-(6-Amino-9H-purin-9-yl)-2,3-dihydroxycyclopentyl)methyl)-N-ethylnaphthalene-2-sulfonamide]",CC50,in vitro,> 100 µM
same,inhibition at 10 µM,[2],34%
same,pIC50,SARS-CoV-2 Nsp14 MTase; [10],5.29
"Nc1ncnc2c1ncn2[C@@H]1O[C@H](CNS(=O)(=O)c2ccc3nc(Cl)ccc3c2)[C@@H](O)[C@H]1O [Compound 5, N-(((2R,3S,4R,5R)-5-(6-Amino-9H-purin-9-yl)-3,4-dihydroxytetrahydrofuran-2-yl)methyl)-2-chloroquinoline-6-sulfonamide]",CC50: NT (nontoxic),A549/ACE2/TMPRSS2 cells; cell viability at 50 μM,"NT^b (NT, nontoxic, >95% cell viability at 50 μM;)"
same,EC50: NA (not active),[1]; inhibition at 50 μM,"NA^a (NA, not active, <15% inhibition at 50 μM.)"
same,pIC50,SARS-CoV-2 Nsp14 MTase; [10],6.36
same,fold reduction in inhibitory activity,SARS-CoV-2 Nsp14 MTase; on replacing 2-naphthalene,7 fold
